In article PMC10303271, “Synthesis and Receptor Binding Studies of α5 GABAAR Selective Novel Imidazodiazepines Targeted for Psychiatric and Cognitive Disorders” (Molecules, 2023):

What was measured:
Alpha2C = target: T1, Alpha2C (Homo sapiens, UniProt P18825); assay: PDSP primary binding Alpha2C; details: 1.5 h; primary binding, 10,000 nM; last figure of the line = mean of the 4 before it; read-out: Alpha2C, PDSP raw data, mean
T1 construct: purchased NIMH Psychoactive Drug Screening Program (PDSP)
T1 sequence (P18825 1-462): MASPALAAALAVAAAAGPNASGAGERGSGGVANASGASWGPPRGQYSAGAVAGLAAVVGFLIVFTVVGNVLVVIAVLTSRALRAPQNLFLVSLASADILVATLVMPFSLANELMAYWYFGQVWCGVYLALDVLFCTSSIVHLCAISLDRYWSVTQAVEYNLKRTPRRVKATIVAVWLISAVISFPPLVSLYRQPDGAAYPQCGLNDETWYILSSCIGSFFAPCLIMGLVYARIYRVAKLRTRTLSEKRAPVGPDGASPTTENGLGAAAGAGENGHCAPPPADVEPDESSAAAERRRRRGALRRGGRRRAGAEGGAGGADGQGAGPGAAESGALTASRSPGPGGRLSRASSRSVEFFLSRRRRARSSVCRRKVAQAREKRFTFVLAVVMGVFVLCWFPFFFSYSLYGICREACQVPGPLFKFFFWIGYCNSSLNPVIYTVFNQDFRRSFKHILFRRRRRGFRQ
Description: (§1) To determine if any off-target receptor-binding effects are present, all the novel ligands were sent to the National Institute of Mental Health (NIMH), Psychoactive Drug Screening Program (PDSP). The ligands were screened over a panel of 47 receptors, ion channels, and transporters to determine any other possible interactions with […]. The hERG-binding was also determined. […] No binding of the test compounds to calcium channels was observed. […] It is necessary to screen the compounds for hERG-binding during the early process of drug discovery. The unintentional binding of many drugs to hERG can cause blockade of hERG K+ channels in the heart, which can cause many side effects including cardiac arrhythmias and sudden death. […] All of the α5 imidazodiazepines were tested for hERG-binding.
(§2) The NIMH PDSP assay protocol book [https://kidbdev.med.unc.edu/databases/PDSP%20Protocols%20II%202013-03-28.pdf accessed on 23 April 2023]. describes the protocols for primary and secondary radio-ligand binding assays. These assays were carried out in a final volume of 125 µL per well in the appropriate binding buffer.
(§3) The binding of a ligand to a receptor, ion channel, or transporter was determined in the […] of 10 µM of the appropriate reference compound. […] Plates were incubated in the dark for 90 min at rt, and the reactions were stopped by vacuum filtration onto 0.3% polyethyleneimine (PEI) soaked 96-well filter mats using a 96-well Filtermateharvester. This was followed by three washes with cold PBS buffer. Radioactivity was then counted on a Microbeta counter. Nonlinear regression was used to analyze the data with N = 6 replicates.

D4 = target: T2, D4 (Homo sapiens, UniProt P21917); assay: PDSP primary binding D4; details: 1.5 h; primary binding, 10,000 nM; last figure of the line = mean of the 4 before it; read-out: D4, PDSP raw data, mean
T2 construct: purchased NIMH Psychoactive Drug Screening Program (PDSP)
T2 sequence (P21917 1-419): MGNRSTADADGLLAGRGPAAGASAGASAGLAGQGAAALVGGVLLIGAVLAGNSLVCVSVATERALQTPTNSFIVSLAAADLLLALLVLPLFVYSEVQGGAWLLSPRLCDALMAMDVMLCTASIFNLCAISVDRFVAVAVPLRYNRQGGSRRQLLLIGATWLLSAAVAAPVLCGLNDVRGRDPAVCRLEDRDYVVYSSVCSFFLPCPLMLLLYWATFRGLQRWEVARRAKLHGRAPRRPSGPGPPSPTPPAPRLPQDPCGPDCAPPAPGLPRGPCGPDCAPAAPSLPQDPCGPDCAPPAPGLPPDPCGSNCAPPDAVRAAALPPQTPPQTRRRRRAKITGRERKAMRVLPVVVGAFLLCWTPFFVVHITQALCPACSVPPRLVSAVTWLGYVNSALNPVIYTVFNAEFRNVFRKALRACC
Description: as §1, §2, §3

M4 = target: T3, M4 (Homo sapiens, UniProt P08173); assay: PDSP primary binding M4; details: primary binding, 10,000 nM; last figure of the line = mean of the 4 before it; read-out: M4, PDSP raw data, mean
T3 construct: purchased NIMH Psychoactive Drug Screening Program (PDSP)
T3 sequence (P08173 1-479): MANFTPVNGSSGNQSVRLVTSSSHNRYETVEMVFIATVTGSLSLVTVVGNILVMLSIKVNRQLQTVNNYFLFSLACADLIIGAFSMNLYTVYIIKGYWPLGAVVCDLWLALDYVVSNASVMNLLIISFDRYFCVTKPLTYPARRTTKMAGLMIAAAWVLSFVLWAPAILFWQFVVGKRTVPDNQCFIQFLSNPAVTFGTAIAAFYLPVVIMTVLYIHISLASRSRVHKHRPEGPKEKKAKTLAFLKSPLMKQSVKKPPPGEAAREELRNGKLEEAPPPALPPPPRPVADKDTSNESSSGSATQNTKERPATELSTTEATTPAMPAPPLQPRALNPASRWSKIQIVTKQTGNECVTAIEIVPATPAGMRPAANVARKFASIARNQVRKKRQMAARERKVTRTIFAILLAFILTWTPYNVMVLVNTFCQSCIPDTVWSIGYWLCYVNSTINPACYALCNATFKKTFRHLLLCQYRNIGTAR
Description: as §1, §2, §3

Alpha4Beta2 (Rat Brain) = target: T4, Alpha4Beta2 (Rat Brain) (Rattus norvegicus, UniProt P09483+P12390); assay: PDSP primary binding Alpha4Beta2 (Rat Brain); details: primary binding, 10,000 nM; last figure of the line = mean of the 4 before it; read-out: Alpha4Beta2 (Rat Brain), PDSP raw data, mean
T4 construct: purchased NIMH Psychoactive Drug Screening Program (PDSP)
Description: as §1, §2, §3

Alpha4Beta4 = target: T5, Alpha4Beta4 (Rattus norvegicus, UniProt P09483+P12392); assay: PDSP primary binding Alpha4Beta4; details: primary binding, 10,000 nM; last figure of the line = mean of the 4 before it; read-out: Alpha4Beta4, PDSP raw data, mean
T5 construct: purchased NIMH Psychoactive Drug Screening Program (PDSP)
Description: as §1, §2, §3

V2 = target: T6, V2 (Homo sapiens, UniProt P30518); assay: PDSP primary binding V2; details: primary binding, 10,000 nM; last figure of the line = mean of the 4 before it; read-out: V2, PDSP raw data, mean
T6 construct: purchased NIMH Psychoactive Drug Screening Program (PDSP)
Description: as §1, §2, §3

T6 sequence (P30518 whole entry): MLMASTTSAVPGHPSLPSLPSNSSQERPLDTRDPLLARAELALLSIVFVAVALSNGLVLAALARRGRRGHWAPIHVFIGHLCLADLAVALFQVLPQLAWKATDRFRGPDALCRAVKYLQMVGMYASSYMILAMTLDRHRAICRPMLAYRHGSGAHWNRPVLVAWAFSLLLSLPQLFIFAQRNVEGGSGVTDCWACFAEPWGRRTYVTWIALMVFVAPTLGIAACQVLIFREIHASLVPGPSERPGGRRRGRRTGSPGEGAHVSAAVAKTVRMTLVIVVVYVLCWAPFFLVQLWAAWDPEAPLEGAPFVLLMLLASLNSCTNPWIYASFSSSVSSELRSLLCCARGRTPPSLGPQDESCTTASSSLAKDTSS
T5 sequence (P09483 31-630): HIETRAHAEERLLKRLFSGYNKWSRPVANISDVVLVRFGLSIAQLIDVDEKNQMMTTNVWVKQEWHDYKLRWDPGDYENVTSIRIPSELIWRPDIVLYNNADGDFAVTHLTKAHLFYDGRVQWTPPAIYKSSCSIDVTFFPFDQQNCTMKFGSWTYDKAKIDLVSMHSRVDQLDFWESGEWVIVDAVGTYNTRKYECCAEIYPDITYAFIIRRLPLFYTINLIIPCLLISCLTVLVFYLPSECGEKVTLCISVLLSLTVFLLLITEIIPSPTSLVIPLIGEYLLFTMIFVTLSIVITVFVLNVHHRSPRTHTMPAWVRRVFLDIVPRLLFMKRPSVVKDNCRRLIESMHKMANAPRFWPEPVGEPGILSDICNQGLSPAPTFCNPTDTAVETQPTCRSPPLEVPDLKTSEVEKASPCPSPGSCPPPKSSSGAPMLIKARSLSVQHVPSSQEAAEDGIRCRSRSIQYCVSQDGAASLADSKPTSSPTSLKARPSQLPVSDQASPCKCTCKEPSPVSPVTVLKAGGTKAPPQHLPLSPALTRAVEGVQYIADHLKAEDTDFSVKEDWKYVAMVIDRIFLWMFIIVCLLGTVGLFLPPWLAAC
T5 sequence (P12392 21-495): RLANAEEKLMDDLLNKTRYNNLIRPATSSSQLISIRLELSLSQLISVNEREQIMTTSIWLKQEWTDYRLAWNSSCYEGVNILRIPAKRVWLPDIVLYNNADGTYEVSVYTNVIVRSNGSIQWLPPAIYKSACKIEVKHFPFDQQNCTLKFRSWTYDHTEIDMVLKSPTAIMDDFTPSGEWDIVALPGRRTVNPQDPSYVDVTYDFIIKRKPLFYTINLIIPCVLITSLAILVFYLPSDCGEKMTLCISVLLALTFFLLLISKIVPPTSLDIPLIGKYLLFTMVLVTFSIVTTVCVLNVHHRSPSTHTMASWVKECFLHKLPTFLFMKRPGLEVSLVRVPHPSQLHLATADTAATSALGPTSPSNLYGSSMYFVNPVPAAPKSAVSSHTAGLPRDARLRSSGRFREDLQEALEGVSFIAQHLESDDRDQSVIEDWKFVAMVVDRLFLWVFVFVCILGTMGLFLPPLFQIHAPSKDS
T4 sequence (P09483 31-630): as the sequence (P09483 31-630) above
T4 sequence (P12390 25-500): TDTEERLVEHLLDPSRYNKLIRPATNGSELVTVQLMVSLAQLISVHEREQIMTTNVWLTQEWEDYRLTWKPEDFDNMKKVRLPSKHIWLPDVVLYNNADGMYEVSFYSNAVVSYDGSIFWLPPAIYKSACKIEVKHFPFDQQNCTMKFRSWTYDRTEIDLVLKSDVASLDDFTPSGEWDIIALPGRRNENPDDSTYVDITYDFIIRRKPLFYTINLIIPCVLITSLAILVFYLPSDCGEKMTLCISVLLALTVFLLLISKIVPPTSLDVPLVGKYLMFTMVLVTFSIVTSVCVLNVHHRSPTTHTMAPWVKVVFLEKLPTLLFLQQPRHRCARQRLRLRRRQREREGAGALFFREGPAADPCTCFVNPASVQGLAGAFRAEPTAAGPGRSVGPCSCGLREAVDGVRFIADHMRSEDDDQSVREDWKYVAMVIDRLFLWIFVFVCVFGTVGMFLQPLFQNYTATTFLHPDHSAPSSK

Row | SMILES | inhibition at 10 µM (Alpha2C) [%] | inhibition at 10 µM (D4) [%] | inhibition at 10 µM (M4) [%] | inhibition at 10 µM (Alpha4Beta2 (Rat Brain)) [%] | inhibition at 10 µM (Alpha4Beta4) [%] | inhibition at 10 µM (V2) [%]
1 | C#Cc1ccc2c(c1)C(c1ccccc1F)=N[C@H](C)c1c(C(=S)N(C)C)ncn1-2 [Compound 33, (R)-8-Ethynyl-6-(2′-fluorophenyl)-N,N,4-trimethyl-4H-benzo[f]imidazo[1,5-a][1,4]diazepine-3-carbothioamide] | 12.9 | -4.45 | -3.29 | -5.7 | 1.99 | 19.7
2 | C#Cc1ccc2c(c1)C(c1ccccc1Cl)=N[C@H](C)c1c(C(=O)NC)ncn1-2 [Compound 21, (R)-6-(2′-Chlorophenyl)-8-ethynyl-N,4-dimethyl-4H-benzo[f]imidazo[1,5-a][1,4]diazepine-3-carboxamide] | -1.39 | 2.12 | -16.9 | 0.7 | 14.4 | 43
3 | CCc1noc(-c2ncn3c2[C@@H](C)N=C(c2ccccc2F)c2cc(C4CC4)ccc2-3)n1 [Compound 46, (R)-5-(8-Cyclopropyl-6-(2′-fluorophenyl)-4-methyl-4H-benzo[f]imidazo[1,5-a][1,4]diazepin-3-yl)-3-ethyl-1,2,4-oxadiazole] | 11.9 | 10.6 | -0.8 | -5.79 | 14.2 | 48.4
4 | CC(C)c1noc(-c2ncn3c2[C@@H](C)N=C(c2ccccc2F)c2cc(Cl)ccc2-3)n1 [Compound 37, (R)-5-(8-Chloro-6-(2′-fluorophenyl)-4-methyl-4H-benzo[f]imidazo[1,5-a][1,4]diazepin-3-yl)-3-isopropyl-1,2,4-oxadiazole] | 2.74 | -10.1 | -4.01 | -0.61 | 12.9 | -7.17
5 | CCc1noc(-c2ncn3c2[C@@H](C)N=C(c2ccccc2F)c2cc(Cl)ccc2-3)n1 [Compound 36, (R)-5-(8-Chloro-6-(2′-fluorophenyl)-4-methyl-4H-benzo[f]imidazo[1,5-a][1,4]diazepin-3-yl)-3-ethyl-1,2,4-oxadiazole] | 1.43 | -4.5 | -5.41 | 3.25 | 10.2 | 12.6
6 | C[C@H]1N=C(c2ccccc2F)c2cc(-c3ccccc3)ccc2-n2cnc(C(=O)N(C)C)c21 [Compound 5, (R)-6-(2′-Fluorophenyl)-N,N,4-trimethyl-8-phenyl-4H-benzo[f]imidazo[1,5-a][1,4]diazepine-3-carboxamide] | 12.9 | -4.45 | -3.29 | -5.7 | 1.99 | 19.7
7 | C#Cc1ccc2c(c1)C(c1ccccn1)=N[C@@H](C)c1c(C(=O)N(C)C)ncn1-2 [Compound 31, (S)-8-Ethynyl-N,N,4-trimethyl-6-(pyridin-2′-yl)-4H-benzo[f]imidazo[1,5-a][1,4]diazepine-3-carboxamide] | 7.52 | -0.38 | 3.2 | 2.48 | 6.85 | 15.4
8 | C#Cc1ccc2c(c1)C(c1ccccn1)=N[C@@H](C)c1c(C(=O)NC)ncn1-2 [Compound 23, (S)-8-Ethynyl-N,4-dimethyl-6-(pyridin-2′-yl)-4H-benzo[f]imidazo[1,5-a][1,4]diazepine-3-carboxamide] | -0.12 | 3.79 | 2.93 | 2.71 | 4.42 | 10.2
9 | C#Cc1ccc2c(c1)C(c1ccccc1Cl)=N[C@H](C)c1c(C(=O)N(C)CC)ncn1-2 [Compound 29] | 19.9 | 1.36 | 4.91 | 0.03 | -3.3 | 21.9
10 | CCc1noc(-c2ncn3c2CN=C(c2ccccc2F)c2cc(C4CC4)ccc2-3)n1 [Compound 44, 5-(8-Cyclopropyl-6-(2′-fluorophenyl)-4H-benzo[f]imidazo[1,5-a][1,4]diazepin-3-yl)-3-ethyl-1,2,4-oxadiazole] | 15.7 | -4.07 | -4.92 | -0.99 | 10.6 | 27.7
11 | CCc1noc(-c2ncn3c2[C@@H](C)N=C(c2ccccc2F)c2cc(-c4ccccc4)ccc2-3)n1 [Compound 35, (R)-3-Ethyl-5-(6-(2′-fluorophenyl)-4-methyl-8-phenyl-4H-benzo[f]imidazo[1,5-a][1,4]diazepin-3-yl)-1,2,4-oxadiazole] | 31.6 | 6.05 | -4.16 | -11.6 | 17.9 | 37.4
12 | C[C@H]1N=C(c2ccccc2F)c2cc(Cl)ccc2-n2cnc(-c3nc(C4CC4)no3)c21 [Compound 38, (R)-5-(8-Chloro-6-(2′-fluorophenyl)-4-methyl-4H-benzo[f]imidazo[1,5-a][1,4]diazepin-3-yl)-3-cyclopropyl-1,2,4-oxadiazole] | 9.93 | -3.44 | -8.66 | 0.48 | 8.62 | 5.48
